What follows are compounds tested against T1, Glutathione S-transferase E2 (Anopheles gambiae, UniProt Q9GPL8) (assay: GST Inhibition Assay). Conditions: pH 6.5; 30 °C.
T1 sequence (Q9GPL8 whole entry): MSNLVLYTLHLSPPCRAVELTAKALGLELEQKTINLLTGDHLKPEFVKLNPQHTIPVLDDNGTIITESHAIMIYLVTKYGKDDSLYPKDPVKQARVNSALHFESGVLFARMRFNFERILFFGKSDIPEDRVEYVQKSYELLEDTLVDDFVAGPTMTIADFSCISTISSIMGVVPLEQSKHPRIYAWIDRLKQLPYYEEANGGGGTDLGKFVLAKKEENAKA
Description: A range of natural product were screened for inhibition of AgGSTE2. GST activity was monitored by measuring absorbance at 340 nm with time, using a SpectraMax 340 microplate spectrophotometer equipped with a kinetics mode from Molecular Devices, Sunnyvale, California, USA.

Row | Structure (SMILES) | IC50
1 | CC(C)=CCCC1(C)C(CC=C(C)C)CC2(CC=C(C)C)C(=O)C(C(=O)c3ccc(O)c(O)c3)C(=O)C1(CC=C(C)C)C2=O (stereo not given) [GGI] | 4.8 µM
2 | COc1cc(O)c(-c2c(C)cc(O)c3c2Cc2cccc(O)c2C3=O)c(O)c1C(C)=O [Name not given] | 3.5 µM
3 | O=Cc1occ2c(O)c3c(O)ccc(O)c3c(O)c12 [MR-13/4] | 4.3 µM

Further lines, results first:

Row | IC50 | Structure (SMILES)
4 | 1.5 µM | C=Cc1c(OC=O)cc(O)c2c1OC(c1ccc(O)c(O)c1)C(O)C2 (stereo not given) [TRAL-1]
5 | 1.4 µM | C=C(CC)C(=O)c1ccc(OCC(=O)O)c(Cl)c1Cl [[2,3-dichloro-4-(2-methylidenebutanoyl)phenoxy]acetic acid]

From BindingDB's records for doi:10.1080/14756360701546595 (University of Zimbabwe, 2008)
